{"source": "patent US20210009959A1", "about": "“METHODS FOR ENHANCING OSTEOGENIC DIFFERENTIATION USING VITAMIN D” (priority 2019, published 2021)", "type_in_all_cases": "cell-based", "key": {"[1]": {"tested_on": "human adipose stem cells (hASCs)", "assay": "hASC proliferation (cell number) on BCP scaffold, static culture", "conditions": "vs non-treated controls", "procedure": "In one embodiment, a method of static culture of hASCs by pre-treatment with vitamin D3 (calcitriol) and attachment of hASCs to the scaffold used in one-step surgical procedure comprises the following steps. At one step, isolating hASCs as explained in FIG. 1. In an embodiment, the hASCs from three donors at passage 3 are used for further processing. As an optional step, the obtained hASCs are either or not incubated for a period of about 30 mins with low concentrated calcitriol of about 10 nM at room temperature. At next step, the calcitriol treated hASCs are washed twice with Phosphate Buffered Saline (PBS) to remove calcitriol. Further, the washed hASCs are centrifuged and resuspended in Dulbecco's Minimum Essential Medium (DMEM) without any supplements. At another step, the resuspended cells are seeded on the scaffold and allowed to attach to the scaffolds for a period of about 30 minutes. At next step, the scaffolds with attached cells are transferred to 12-well plates with Costar® Transwell® containers (Corning Life Sciences, Lowell, Mass., USA) containing expansion medium (DMEM) supplemented with 10% Fetal Clone I (FCI), antibiotics (1% penicillin/streptomycin/fungizone (PSF)), 50 μM ascorbic acid (Merck, Darmstadt, Germany), and 10 mM β-glycerol phosphate (Merck, Darmstadt, Germany) (PLGA/β-TCP). At next step, the hASCs seeded scaffolds are incubated at 5% CO2 in a humidified incubator at predefined temperature of about 37° C. for a period of about 3 weeks. The effect of 30 minutes pre-treatment with calcitriol on hASC proliferation is exemplarily illustrated in FIG. 4C. […] The 30 minutes pre-treatment with calcitriol increases the cell number at day 14 by 3.5-fold, and at day 21 by 2.6-fold. The continuous treatment of hASCs with calcitriol for 3 weeks increases the cell number only at day 14 by 1.7-fold, but not at day 21 compared to non-treated controls as shown in FIG. 4C. The results of hASC proliferation are expressed as CFU (in %) versus time (in days) and represent means±standard errors of the means of the colon forming unit counts (n=3), where p<0.0001."}, "[2]": {"tested_on": "human adipose stem cells (hASCs)", "assay": "Osteogenic and angiogenic gene expression of hASCs in 3D PLGA/β-TCP scaffold, dynamic and static culture", "procedure": "(§1) In one embodiment, dynamic culture of pre-treated hASCs with calcitriol, using the modified perfusion bioreactor comprises the following steps. In one embodiment, the scaffolds are 3D PLGA/β-TCP. The modified perfusion bioreactor […] comprises five scaffolds, loaded with a total of 70 ml of culture medium as shown in FIG. 2. At another step, 30 ml of the culture medium is replaced twice a week for a total period of two weeks. At another step, the culture medium in the modified perfusion bioreactor 200 is distributed to the five scaffolds with the flow rate of about 5 ml/min using the peristaltic pump 202.\n(§2) In one embodiment, the method of static culture of pre-treated hASCs is continued in a flask bioreactor with the same volume of culture medium utilized in the dynamic culture. Further, the methods of culturing the hASCs are divided into different groups. In one embodiment, the methods of culturing of hASCs are divided into four groups such as, static culture of non-treated hASCs, static culture of pre-treated hASCs with calcitriol, dynamic culture of non-treated hASCs and dynamic culture of pre-treated hASCs with calcitriol.\nReferring to FIGS. 11A to 11I, the effects of perfusion culture of hASCs on osteogenic and angiogenic differentiation of hASCs are disclosed, where the hASCs are seeded in 3D PLGA/β-TCP scaffold. In one embodiment, the hASCs are pre-treated with or without 10 nM of calcitriol for 30 minutes and cultured in the modified perfusion bioreactor (dynamic culture) and flask bioreactor (static culture)."}, "[3]": {"tested_on": "human adipose stem cells (hASCs)", "assay": "Metabolic activity / cell proliferation of hASCs in 3D PLGA/β-TCP scaffold, dynamic (perfusion bioreactor) and static (flask) culture", "procedure": "as §1, §2\nReferring to FIG. 9, the effects of dynamic pre-treated/non-treated hASCs versus static pre-treated/non-treated hASCs on metabolic activity or cell proliferation of hASCs is disclosed, where the pre-treated hASCs are seeded in 3D PLGA/β-TCP scaffold. In one embodiment, the hASCs are pre-treated with or without 10 nM calcitriol for 30 minutes and cultured in the modified perfusion bioreactor 200 (dynamic culture) and flask bioreactor (static culture). […] Also, the culturing groups are compared and there is no significant difference between the groups. However, the 14 days of dynamic culture of both non-treated hASCs and pre-treated hASCs increases cell proliferation by 1.1-fold relative to 7 days of culture.\nIn addition, alamarBlue assay, ALP assay, ALP staining, analysis of osteogenic and angiogenic gene expression and related protein content to evaluate the synergistic effects of flow-induced shear stress using a modified perfusion bioreactor and calcitriol pre-treatment are used for the examinations."}, "[4]": {"tested_on": "human adipose stem cells (hASCs)", "assay": "ALP staining using NBT/BCIP in hASCs", "conditions": "30 min treatment; 2 and 3 weeks of culture; compared to continuous treatment", "from_the_text": "Referring to FIG. 6, the effect of calcitriol treatment on ALP activity in hASCs by ALP staining using nitro blue tetrazolium chloride/5-bromo-4-chloro-3-indolyl phosphate (NBT/BCIP) is disclosed. […] The increase in ALP activity is confirmed by ALP staining after 14 days of culture. […] The cell distribution is confirmed by 4′,6-diamidino-2-phenylindole (DAPI) staining."}, "[5]": {"conditions": "14 days, perfusion culture of pre-treated vs perfusion culture of non-treated hASCs"}, "[6]": {"conditions": "14 days, perfusion culture of pre-treated vs static culture of pre-treated hASCs"}, "[7]": {"conditions": "day 7, dynamic culture of pre-treated vs perfusion culture of non-treated hASCs"}, "[8]": {"conditions": "day 7, dynamic culture of pre-treated vs static culture of treated hASC"}}}
{"smiles": "C=C1/C(=C\\C=C2/CCC[C@]3(C)[C@@H]([C@H](C)CCCC(C)(C)O)CC[C@@H]23)C[C@@H](O)C[C@@H]1O", "note": "[calcitriol, 1,25-dihydroxyvitamin D3]", "values": [{"measurement": "cell number, increase", "setting": "[1]; 30 min pre-treatment, day 14", "value": 3.5, "unit": "fold"}, {"measurement": "cell number, increase", "setting": "[1]; 30 min pre-treatment, day 21", "value": 2.6, "unit": "fold"}, {"measurement": "cell number, increase", "setting": "[1]; continuous treatment for 3 weeks, day 14", "value": 1.7, "unit": "fold"}, {"measurement": "cell number, increase", "setting": "[1]; continuous treatment for 3 weeks, day 21", "value": "not at day 21"}, {"measurement": "CYP27B1 gene expression, increase", "setting": "[2]; [5]", "value": 5.3, "unit": "fold"}, {"measurement": "Endotelin-1 gene expression, increase", "setting": "[2]; [5]", "value": 4, "unit": "fold"}, {"measurement": "Ki-67 gene expression, increase", "setting": "[2]; [5]", "value": 1.8, "unit": "fold"}, {"measurement": "OCN gene expression, increase", "setting": "[2]; [5]", "value": 2.1, "unit": "fold"}, {"measurement": "RUNX2 gene expression, increase", "setting": "[2]; [5]", "value": 6.4, "unit": "fold"}, {"measurement": "SPARC gene expression, increase", "setting": "[2]; [5]", "value": 2.8, "unit": "fold"}, {"measurement": "VEGF165 gene expression, increase", "setting": "[2]; [5]", "value": 3.1, "unit": "fold"}, {"measurement": "VEGF189 gene expression, increase", "setting": "[2]; [5]", "value": 2.5, "unit": "fold"}, {"measurement": "CYP27B1 gene expression, increase", "setting": "[2]; [6]", "value": 15.4, "unit": "fold"}, {"measurement": "Endotelin-1 gene expression, increase", "setting": "[2]; [6]", "value": 35, "unit": "fold"}, {"measurement": "Ki-67 gene expression, increase", "setting": "[2]; [6]", "value": 5.1, "unit": "fold"}, {"measurement": "OCN gene expression, increase", "setting": "[2]; [6]", "value": 4.1, "unit": "fold"}, {"measurement": "OPN gene expression, increase", "setting": "[2]; [6]", "value": 60, "unit": "fold"}, {"measurement": "RUNX2 gene expression, increase", "setting": "[2]; [6]", "value": 82.8, "unit": "fold"}, {"measurement": "SPARC gene expression, increase", "setting": "[2]; [6]", "value": 33.2, "unit": "fold"}, {"measurement": "VEGF165 gene expression, increase", "setting": "[2]; [6]", "value": 1.4, "unit": "fold"}, {"measurement": "VEGF189 gene expression, increase", "setting": "[2]; [6]", "value": 5.7, "unit": "fold"}, {"measurement": "OPN gene expression (level)", "setting": "[2]; day 7, dynamic culture of pre-treated hASC", "value": 0.1084}, {"measurement": "Endotelin-1 gene expression, increase", "setting": "[2]; [7]", "value": 120.9, "unit": "fold"}, {"measurement": "Ki-67 gene expression, increase", "setting": "[2]; [7]", "value": 45.9, "unit": "fold"}, {"measurement": "OCN gene expression, increase", "setting": "[2]; [7]", "value": 1.8, "unit": "fold"}, {"measurement": "RUNX2 gene expression, increase", "setting": "[2]; [7]", "value": 186.5, "unit": "fold"}, {"measurement": "SPARC gene expression, increase", "setting": "[2]; [7]", "value": 3, "unit": "fold"}, {"measurement": "VEGF165 gene expression, increase", "setting": "[2]; [7]", "value": 3, "unit": "fold"}, {"measurement": "VEGF189 gene expression, increase", "setting": "[2]; [7]", "value": 3.4, "unit": "fold"}, {"measurement": "Endotelin-1 gene expression, increase", "setting": "[2]; [8]", "value": 5.4, "unit": "fold"}, {"measurement": "OCN gene expression, increase", "setting": "[2]; [8]", "value": 7.1, "unit": "fold"}, {"measurement": "OPN gene expression, increase", "setting": "[2]; [8]", "value": 47.3, "unit": "fold"}, {"measurement": "SPARC gene expression, increase", "setting": "[2]; [8]", "value": 7.5, "unit": "fold"}, {"measurement": "VEGF165 gene expression, increase", "setting": "[2]; [8]", "value": 9.8, "unit": "fold"}, {"measurement": "VEGF189 gene expression, increase", "setting": "[2]; [8]", "value": 8.8, "unit": "fold"}, {"measurement": "OPN gene expression (level)", "setting": "[2]; day 7, static culture of treated hASC", "value": 0.002291}, {"measurement": "cell proliferation, increase", "setting": "[3]; dynamic culture of pre-treated hASCs, 14 days relative to 7 days of culture", "value": 1.1, "unit": "fold"}, {"measurement": "cell proliferation, increase", "setting": "[3]; dynamic culture of pre-treated hASCs, 14 days, relative to the first day", "value": 10.8, "unit": "fold"}, {"measurement": "cell proliferation, increase", "setting": "[3]; dynamic culture of pre-treated hASCs, after 7 days, relative to the first day", "value": 9.9, "unit": "fold"}, {"measurement": "cell proliferation", "setting": "[3]; perfusion culture of pre-treated vs perfusion culture of non-treated hASCs, after 7 and 14 days", "value": "slightly decelerates"}, {"measurement": "cell proliferation, increase", "setting": "[3]; static culture of pre-treated hASCs (10 nM, 30 min), after 7 days, relative to the first day", "value": 10.6, "unit": "fold"}, {"measurement": "cell proliferation, increase", "setting": "[3]; static culture of pre-treated hASCs, 14 days, relative to the first day", "value": 1.6, "unit": "fold"}, {"measurement": "ALP activity by ALP staining (NBT/BCIP)", "setting": "[4]", "value": "notably increases"}]}
